# Measured values reported in PubChem BioAssay AID248 (DTP/NCI, 2004).
# Values joined by “and” are separate entries in the source; they are usually repeats but may differ in a detail not shown here. Equal values may be shown once. Inconclusive results and toxic doses are left out.
# Test system: L1210 leukemia ip in BDF1 mice, survival T/C
# Experiment: NCI In Vivo Anticancer Drug Screen. Data for tumor model L1210 Leukemia (intraperitoneal) in B6D2F1 (BDF1) mice
# Conditions: endpoint: mean survival time, higher = longer survival
# Summary of the method: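 In this screen, tumor-bearing mice given compound are compared to those given vehicle, and their survival values are reported as a treated-to-control quotient.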
smiles,measurement,setting,value
N=[N+]=CC(=O)CCC(NC(=O)C(CCC(=O)C=[N+]=N)NC(=O)CCC(N)C(=O)O)C(=O)O (stereo unspecified),T/C,"dose: 0.01 mg/kg/injection, schedule: Q01DX009 (ip), vehicle: water",114 % of control
same,T/C,"dose: 0.02 mg/kg/injection, schedule: Q01DX009 (ip), vehicle: other",110 % of control
same,T/C,"dose: 0.02 mg/kg/injection, schedule: Q01DX015 (ip), vehicle: water",93 % of control
same,T/C,"dose: 0.05 mg/kg/injection, schedule: Q01DX009 (ip), vehicle: other",102 % of control and 115 % of control
same,T/C,"dose: 0.05 mg/kg/injection, schedule: Q01DX015 (ip), vehicle: water",102 % of control
same,T/C,"dose: 0.05 mg/kg/injection, schedule: Q01DX017 (ip), vehicle: saline",98 % of control and 106 % of control
same,T/C,"dose: 0.05 mg/kg/injection, schedule: Q02DX009 (ip), vehicle: saline",98 % of control
same,T/C,"dose: 0.05 mg/kg/injection, schedule: Q03HX024 (ip), vehicle: water",93 % of control
same,T/C,"dose: 0.07 mg/kg/injection, schedule: Q01DX009 (ip), vehicle: water",156 % of control
same,T/C,"dose: 0.1 mg/kg/injection, schedule: Q01DX009 (ip), vehicle: other",117 % of control
same,T/C,"dose: 0.1 mg/kg/injection, schedule: Q01DX015 (ip), vehicle: water",108 % of control
same,T/C,"dose: 0.1 mg/kg/injection, schedule: Q01DX017 (ip), vehicle: saline",123 % of control
same,T/C,"dose: 0.1 mg/kg/injection, schedule: Q02DX009 (ip), vehicle: saline",116 % of control
same,T/C,"dose: 0.1 mg/kg/injection, schedule: Q04DX005 (ip), vehicle: saline",102 % of control
same,T/C,"dose: 0.2 mg/kg/injection, schedule: Q01DX009 (ip), vehicle: other",107 % of control
same,T/C,"dose: 0.2 mg/kg/injection, schedule: Q01DX017 (ip), vehicle: saline",158 % of control
same,T/C,"dose: 0.2 mg/kg/injection, schedule: Q02DX009 (ip), vehicle: saline",123 % of control
same,T/C,"dose: 0.2 mg/kg/injection, schedule: Q04DX005 (ip), vehicle: saline",104 % of control
same,T/C,"dose: 0.2 mg/kg/injection, schedule: Q08DX003 (ip), vehicle: saline",112 % of control
same,T/C,"dose: 0.4 mg/kg/injection, schedule: Q01DX015 (ip), vehicle: other",117 % of control
same,T/C,"dose: 0.4 mg/kg/injection, schedule: Q01DX015 (ip), vehicle: water",153 % of control
same,T/C,"dose: 0.4 mg/kg/injection, schedule: Q01DX017 (ip), vehicle: saline",110 % of control and 123 % of control
same,T/C,"dose: 0.4 mg/kg/injection, schedule: Q04DX005 (ip), vehicle: saline",121 % of control
same,T/C,"dose: 0.4 mg/kg/injection, schedule: Q08DX003 (ip), vehicle: saline",107 % of control
same,T/C,"dose: 0.6 mg/kg/injection, schedule: Q01DX015 (ip), vehicle: water",183 % of control
same,T/C,"dose: 0.8 mg/kg/injection, schedule: Q04DX005 (ip), vehicle: saline",118 % of control
same,T/C,"dose: 0.8 mg/kg/injection, schedule: Q08DX003 (ip), vehicle: saline",109 % of control
same,T/C,"dose: 1.0 mg/kg/injection, schedule: Q01DX009 (oral), vehicle: water",96 % of control
same,T/C,"dose: 1.0 mg/kg/injection, schedule: Q02DX005 (ip), vehicle: other",160 % of control
same,T/C,"dose: 1.0 mg/kg/injection, schedule: Q02DX005 (oral), vehicle: other",163 % of control
same,T/C,"dose: 1.25 mg/kg/injection, schedule: Q02DX008 (ip), vehicle: other",189 % of control
same,T/C,"dose: 1.25 mg/kg/injection, schedule: Q02DX008 (ip), vehicle: water",166 % of control
same,T/C,"dose: 1.25 mg/kg/injection, schedule: Q02DX008 (oral), vehicle: water",156 % of control
same,T/C,"dose: 1.6 mg/kg/injection, schedule: Q08DX003 (ip), vehicle: saline",110 % of control
same,T/C,"dose: 2.0 mg/kg/injection, schedule: Q02DX005 (oral), vehicle: other",186 % of control
same,T/C,"dose: 2.5 mg/kg/injection, schedule: Q02DX008 (oral), vehicle: water",154 % of control
same,T/C,"dose: 4.0 mg/kg/injection, schedule: Q02DX005 (ip), vehicle: other",176 % of control
same,T/C,"dose: 4.0 mg/kg/injection, schedule: Q02DX005 (oral), vehicle: other",195 % of control
same,T/C,"dose: 5.0 mg/kg/injection, schedule: Q02DX008 (ip), vehicle: other",206 % of control
same,T/C,"dose: 5.0 mg/kg/injection, schedule: Q04DX003 (ip), vehicle: other",155 % of control
same,T/C,"dose: 5.0 mg/kg/injection, schedule: Q04DX003 (ip), vehicle: saline",170 % of control
same,T/C,"dose: 6.0 mg/kg/injection, schedule: Q02DX005 (ip), vehicle: other",197 % of control
same,T/C,"dose: 6.0 mg/kg/injection, schedule: Q02DX005 (oral), vehicle: other",204 % of control
same,T/C,"dose: 6.2 mg/kg/injection, schedule: Q03HX024 (ip), vehicle: water",193 % of control
same,T/C,"dose: 8.0 mg/kg/injection, schedule: Q02DX005 (ip), vehicle: other",183 % of control
same,T/C,"dose: 8.0 mg/kg/injection, schedule: Q02DX005 (oral), vehicle: other",200 % of control
same,T/C,"dose: 10.0 mg/kg/injection, schedule: Q02DX008 (ip), vehicle: other",117 % of control
same,T/C,"dose: 10.0 mg/kg/injection, schedule: Q02DX008 (oral), vehicle: other",166 % of control
same,T/C,"dose: 10.0 mg/kg/injection, schedule: Q04DX003 (ip), vehicle: other",155 % of control and 173 % of control
same,T/C,"dose: 10.0 mg/kg/injection, schedule: Q04DX003 (ip), vehicle: saline",192 % of control
same,T/C,"dose: 10.0 mg/kg/injection, schedule: Q04DX003 (ip), vehicle: water",167 % of control
same,T/C,"dose: 12.5 mg/kg/injection, schedule: Q01DX001 (ip), vehicle: clinical formulation",112 % of control
same,T/C,"dose: 12.5 mg/kg/injection, schedule: Q01DX001 (ip), vehicle: saline",119 % of control and 122 % of control
same,T/C,"dose: 12.5 mg/kg/injection, schedule: Q03HX024 (ip), vehicle: water",97 % of control
same,T/C,"dose: 15.0 mg/kg/injection, schedule: Q02DX008 (oral), vehicle: other",104 % of control
same,T/C,"dose: 15.0 mg/kg/injection, schedule: Q## X003 (ip), vehicle: water",185 % of control
same,T/C,"dose: 20.0 mg/kg/injection, schedule: Q02DX008 (oral), vehicle: other",116 % of control
same,T/C,"dose: 20.0 mg/kg/injection, schedule: Q04DX003 (ip), vehicle: other",166 % of control
same,T/C,"dose: 20.0 mg/kg/injection, schedule: Q04DX003 (ip), vehicle: saline",188 % of control
same,T/C,"dose: 20.0 mg/kg/injection, schedule: Q04DX003 (ip), vehicle: water",167 % of control and 171 % of control
same,T/C,"dose: 20.0 mg/kg/injection, schedule: Q## X006 (ip), vehicle: water",156 % of control
same,T/C,"dose: 25.0 mg/kg/injection, schedule: Q01DX001 (ip), vehicle: clinical formulation",123 % of control
same,T/C,"dose: 25.0 mg/kg/injection, schedule: Q07DX002 (ip), vehicle: water",156 % of control and 167 % of control
same,T/C,"dose: 30.0 mg/kg/injection, schedule: Q04DX003 (ip), vehicle: other",202 % of control
same,T/C,"dose: 30.0 mg/kg/injection, schedule: Q## X003 (ip), vehicle: water",209 % of control
same,T/C,"dose: 40.0 mg/kg/injection, schedule: Q04DX003 (ip), vehicle: saline",170 % of control
same,T/C,"dose: 40.0 mg/kg/injection, schedule: Q04DX003 (ip), vehicle: water",200 % of control and 206 % of control
same,T/C,"dose: 40.0 mg/kg/injection, schedule: Q## X003 (ip), vehicle: water",194 % of control
same,T/C,"dose: 40.0 mg/kg/injection, schedule: Q## X006 (ip), vehicle: water",188 % of control
same,T/C,"dose: 50.0 mg/kg/injection, schedule: Q01DX001 (ip), vehicle: saline",150 % of control
same,T/C,"dose: 50.0 mg/kg/injection, schedule: Q01DX001 (ip), vehicle: water",111 % of control
same,T/C,"dose: 50.0 mg/kg/injection, schedule: Q07DX002 (ip), vehicle: other",158 % of control
same,T/C,"dose: 50.0 mg/kg/injection, schedule: Q## X003 (ip), vehicle: water",178 % of control
same,T/C,"dose: 60.0 mg/kg/injection, schedule: Q04DX003 (ip), vehicle: water",195 % of control
same,T/C,"dose: 60.0 mg/kg/injection, schedule: Q## X003 (ip), vehicle: water",185 % of control
same,T/C,"dose: 60.0 mg/kg/injection, schedule: Q## X006 (ip), vehicle: water",115 % of control
same,T/C,"dose: 75.0 mg/kg/injection, schedule: Q07DX002 (ip), vehicle: water",192 % of control
same,T/C,"dose: 80.0 mg/kg/injection, schedule: Q04DX003 (ip), vehicle: saline",100 % of control
same,T/C,"dose: 80.0 mg/kg/injection, schedule: Q04DX003 (ip), vehicle: water",159 % of control
same,T/C,"dose: 80.0 mg/kg/injection, schedule: Q## X006 (ip), vehicle: water",115 % of control
same,T/C,"dose: 100.0 mg/kg/injection, schedule: Q01DX001 (ip), vehicle: clinical formulation",153 % of control
same,T/C,"dose: 100.0 mg/kg/injection, schedule: Q07DX002 (ip), vehicle: other",171 % of control
same,T/C,"dose: 100.0 mg/kg/injection, schedule: Q07DX002 (ip), vehicle: water",194 % of control
same,T/C,"dose: 150.0 mg/kg/injection, schedule: Q07DX002 (ip), vehicle: water",194 % of control
same,T/C,"dose: 200.0 mg/kg/injection, schedule: Q01DX001 (ip), vehicle: other",158 % of control
same,T/C,"dose: 200.0 mg/kg/injection, schedule: Q01DX001 (ip), vehicle: saline",96 % of control
same,T/C,"dose: 200.0 mg/kg/injection, schedule: Q01DX001 (ip), vehicle: water",109 % of control
same,T/C,"dose: 200.0 mg/kg/injection, schedule: Q01DX001 (oral), vehicle: other",155 % of control
same,T/C,"dose: 250.0 mg/kg/injection, schedule: Q01DX001 (ip), vehicle: water",117 % of control
same,T/C,"dose: 300.0 mg/kg/injection, schedule: Q01DX001 (ip), vehicle: other",101 % of control
same,T/C,"dose: 300.0 mg/kg/injection, schedule: Q01DX001 (ip), vehicle: water",96 % of control and 106 % of control
